Assay results taken from patent publication US9802962B2, “Tricyclic pyrone compounds reduce amyloid beta aggregates” (priority 2013, dated 2017).
“Also recorded” adds a separate entry of the source.

Columns and labels:
rat hippocampal slices = test: Long-term potentiation (LTP) in rat hippocampal slices; format: cell-based
Protocol: FIGS. 2A-2B. Effects of TP70 on rat hippocampal LTP. FIG. 2A. Top panels show superimposed field excitatory post-synaptic potentials (EPSPs) taken from baseline and 45 min following high frequency stimulation (HFS, four 1-s trains of 100 pulses of 0.2 ms delivered at 100 Hz, inter-train interval of 20 s) of the Schaffer collateral-CA1 synapses. FIG. 2B. […] In Control HFS induced LTP. AβO blocked LTP. TP70 (1 μM) restored LTP in the presence of AβO. TP70 alone enhanced LTP.
We further investigated effects of TP70 on basal neurotransmission and synaptic plasticity, for example long-term potentiation (LTP) in rat hippocampal slices as previously described (Villeda, et al., Nature, 2011, 477:90-94; Xie, et al., Pflugers Arch, 1994, 427:481-486).

MC65 neuroblastoma cells = test: MC65 protection assay; format: cell-based
Protocol: Employing medium-throughput cell-based MC65 protection assay to screen over one hundred TP compounds, seven TP compounds that protect MC65 neuroblastoma cells from death caused by intracellular Aβ have been identified. […] The EC50 values for CP2, TP70, and TP101 are 120, 80, and 70 nM, respectively.

APP/PS1 mice = test: SmartCage homecage activity and locomotion in APP/PS1 mice; format: in vivo; conditions: Day 7, TP70 in drinking water, treatment versus control group
Protocol: FIGS. 8A-8D. Effects of TP70 on homecage activity and locomotion in homecage monitored using the SmartCage™ system A. Active time in each time block during 24 hours. B. Travel distance in each time block during 24 hours. C. Travel speed in each time block during 24 hours. D. Rearing activity in each time block during 24 hours. The gray shadow indicates dark phase of a 12:12 light/dark cycle.
(§1) The validated SmartCage™ system that enables automated, objective, quantitative and long-term evaluation of neuropsychological endpoints at the animal's home cages (Flores, et al., IEEE Trans Biomed Eng, 2007, 54:225-233; Xiong, et al., Stroke, 2011, 42:2026-2032; Carter, et al., Nat Neurosci, 2010, 13:1526-1533; Khroyan, et al., Clin Exp Pharmacol Physiol, 2012, 39:614-622) was used to complement other special individual learning and memory tests (Shineman, et al., Alzheimers Res Ther, 2011, 3:28; Hamann, et al., Neuropsychologia, 2002, 40:1187-1195; Aultman, et al., Psychopharmacology (Berl), 2001, 153:353-364; Ashe, K H, J Alzheimers Dis, 2006, 9:123-126). […] Homecage activity and locomotion were assessed on Day 7 after the treatment and the blood samples were collected from each mouse after the assessment of general behavior. […]

[1] = Plasma and organ distribution after ip administration in mice; format: in vivo; conditions: 25 mg/kg ip
Protocol: FIG. 4. Concentrations or content of TP70 in the plasma and 7 key organs following ip administration of TP70 (25 mg/kg) in mice (n=3 each data point).
In addition to determination of drug concentrations in plasma and the brain, drug content in other six key organs, the heart, liver, lungs, intestine, and kidneys of mice (male C57BL/6, 3 months, Harlan, n=3 per timepoint) were also assessed in a separate pharmacokinetic (PK) study of TP70 (25 mg/kg, ip,) using HPLC and mass spectrometry.

[2] = log P by octanol/water partition; format: physicochemical
[3] = Plasma concentration after 7 days of TP70 in drinking water, APP/PS1 mice; format: in vivo; conditions: after 7 days in drinking water
Text: as §1, with “9:123-126). The SmartCage was able to reveal the behavioral phenotypes of a mouse stroke model of middle cerebral artery occlusion (MCAO) (Xiong, et al., Stroke, 2011, 42:2026-2032) and a hypocretin/orexin neuron degeneration model (orexin/ataxin-3) (Xie, et al., J Clin Invest, 2008, 118:2471-2481; Aultman, et al., Psychopharmacology (Berl), 2001, 153:353-364; Hara, et al., Neuron 2001, 30:345-354). […] These validated protocols were applied to PK/PD studies on TP70 in one more AD transgenic model, APP/PS1 mice, which express mutant APPs in combination with mutant PS1.” for “9:123-126).”

[4] = test system: ABCA1 cholesterol transporter gene; test: Increase of ABCA1 cholesterol transporter gene; format: cell-based
Text: It has been reported that an induction of cholesterol efflux resulting in a reduction of Aβ formation/deposition in vitro and in vivo (Kim, et al., J Alzheimers Dis, 2009, 16:121-131). For additional Detail, see the attached manuscript entitled, “Inhibition of Acyl-CoA: Cholesterol Acyltransferase (ACAT), Overexpression of Cholesterol Transporter Gene, and Protection of Amyloid β (Aβ) Oligomers-Induced Neuronal Cell Death by Tricylic Pyrone Molecules” which is incorporated herein.

wildtype mice (C57BL/6) = test: Rotarod performance in wildtype mice; format: in vivo; conditions: 50 mg/kg ip, one hour after dosing, Day 5
Protocol: FIG. 9. Effects of TP70 on mouse rotarod performance. The mice were trained three times every day for 4 days to reach its maximal performance using SmartCage Rotarod device (with a setting of a constant speed at 15 […] per minute).
To further assess side effects on motor activity, and particularly balance and muscle coordination, rotarod performance was conducted by the wildtype mice (C57BL/6 female, 2 months old, n=7). Vehicle injection (i.p) was given after the Day 4 training to assess any effects of vehicle or injection per se. On Day 5, one hour after TP70 (50 mg/kg, ip) the mice were subject to the rotarod test.

## Cc1cc2c(c(=O)o1)C=C1CCC(C(C)CNCc3ccc(O)cc3)CC1O2 (centres unmarked) [TP70]
Rat hippocampal slices
  concentration required for enhancing synaptic activity and LTP restoration: 0.1 to 3 µM
Rat hippocampal slices; 1 μM, perfused 20 min prior to co-application of AβO
  LTP in the presence of AβO: restored LTP; also recorded: restored LTP to the non-AβO-treated level
Rat hippocampal slices; compound alone
  basal synaptic activity: without affecting basal synaptic activity
Rat hippocampal slices; without AβO
  magnitude of LTP, compound alone: significantly enhanced the magnitude of LTP
MC65 neuroblastoma cells
  concentration required for cell toxicity protection: submicromolar
MC65 neuroblastoma cells; protection of MC65 cells from death caused by intracellular Aβ
  EC50 values (in words): nanomolar range
MC65 neuroblastoma cells; protection of MC65 cells from death caused by intracellular Aβ, read-out: effective concentrations for 50% cell survival (EC50)
  EC50: 80 nM
APP/PS1 mice
  homecage activity and locomotion: no significant differences
[1]
  distribution in the heart: lowest distribution in the heart
[1]; mice
  distribution in the brain: higher distribution in the brain than in the plasma and all other organs examined, except for kidneys
[1]; two hours post dosing
  disposition in the kidneys: highest disposition in the kidneys
  distribution in intestines: low distribution in intestines
[2]
  log P: 1.90
[3]
  plasma TP70 concentration: 1.7 ± 0.5 mg/L
  plasma TP70 concentration (equivalent): 4.3 µM
[4]
  EC50: 1100 nM
Wildtype mice (C57BL/6)
  rotarod performance: insignificant effects
